Test results from paper PMC11866022, “Long-Chain Cyclic Arylguanidines as Multifunctional Serotonin Receptor Ligands with Antiproliferative Activity” (ACS Omega, 2025).
Values joined by “and” are separate entries in the source; they are usually repeats but may differ in a detail not shown here. Equal values may be shown once. Read-outs that look alike come from different tables or passages of the source.

How the values were obtained:
[1] = calibration standards, assigned values, no reference given; cited from earlier work
[2] = calibration standards, assigned values, no reference given; cited from earlier work; remark: listed apart in the source
[3] = test system: LN-229 glioblastoma cells; experiment: Antiproliferative activity (MTS), LN-229; format: cell-based, human; settings: MTS assay, 72 h
Method: (§1) These cell lines were characterized by different mutation profiles, the main one being the variable status of the p53 protein. In detail, U87MG cells have a wild-type p53 protein, while astrocytoma and the rest of GBM cells harbor mutated p53 protein. Additional assays were performed on MCF7 breast cancer and AsPC-1 pancreatic cancer cells. The wide range of tested lines was aimed at screening the anticancer potential of the tested compounds. The first represents one of the most common and the second one of the most aggressive cancers in the world. Comparing the activity of compounds on GBM cells to other types of cancer may reveal their selectivity and usefulness in targeted therapies. The cytotoxicity of the compounds on normal human astrocytes (NHA) and Feline catus astrocyte (PG-4) was determined. Tests on normal lines serve to verify the potential toxicity of the tested compounds on healthy cells. Due to the targeting of CNS tumors, astrocytes were selected as normal lines.
(§2) The detailed procedure is presented in previous publications.[53] […] Cells were cultured in appropriate media, supplemented with FBS, antibiotics, and other supplements, and incubated at 37 °C with 5% CO2. […] Cell viability was assessed using the MTS assay, and the inhibitory concentration (IC50) was calculated using GraphPad Prism 8.0. Each compound was tested in triplicate across multiple experiments.

U-251 glioblastoma cells = experiment: Antiproliferative activity (MTS), U-251; format: cell-based, human; settings: MTS assay, 72 h
Method: as §1, §2

[4] = test system: normal human astrocytes (NHA); experiment: Cytotoxicity (MTS), normal human astrocytes; format: cell-based; settings: 72 h, normal human astrocytes, MTS assay
Method: as §1, with “The chosen group of ligands was further examined for their ability to inhibit proliferation across multiple cancer cell lines related to the CNS system (1321N1, U87MG, LN-229, and U-251). These” for “These”
(§3) The detailed procedure is presented in previous publications.[53] Briefly, the study utilized various human cancer and normal cell lines, including LN-229 (glioblastoma), MCF7 (breast carcinoma), HepG2 (hepatoma), U-251 (glioblastoma), U87MG (glioblastoma), AsPC-1 (pancreatic adenocarcinoma), and NHA (normal human astrocytes). Cells were cultured in appropriate media, supplemented with FBS, antibiotics, and other supplements, and incubated at 37 °C with 5% CO2. Compounds were dissolved in DMSO, prepared at various concentrations (1–25 μM), and applied to the cells for 72 h. Cell viability was assessed using the MTS assay, and the inhibitory concentration (IC50) was calculated using GraphPad Prism 8.0. Each compound was tested in triplicate across multiple experiments.

U87MG glioblastoma cells = experiment: Antiproliferative activity (MTS), U87MG; format: cell-based, human; settings: MTS assay
Method: as §1, §2
Supplementary materials - Biological research
B) U87MG glioblastoma multiforme line.
and U87MG glioblastoma multiforme line for C) PP 3; D) PP 6; E) PP 8; F) PP 10; G) PP 11; H) PP

[5] = Metabolic stability in mouse liver microsomes; format: in vitro ADME; settings: MLMs, 120 min
Description: Moving on to the next parameter, which is metabolism, we determined metabolic stability, using mouse liver microsomes (MLMs). […]
Main metabolic pathways are marked in red.

5-HT6 = target: T1, 5-HT6 (Homo sapiens, UniProt P50406); experiment: Radioligand binding assay, 5-HT6 ([3H]-LSD); settings: HEK293 cell line with human 5-HT6R; 2 nM [3H]-LSD
T1 construct: expressed in transfected cells; host or cells: HEK293
T1 sequence (P50406 whole entry): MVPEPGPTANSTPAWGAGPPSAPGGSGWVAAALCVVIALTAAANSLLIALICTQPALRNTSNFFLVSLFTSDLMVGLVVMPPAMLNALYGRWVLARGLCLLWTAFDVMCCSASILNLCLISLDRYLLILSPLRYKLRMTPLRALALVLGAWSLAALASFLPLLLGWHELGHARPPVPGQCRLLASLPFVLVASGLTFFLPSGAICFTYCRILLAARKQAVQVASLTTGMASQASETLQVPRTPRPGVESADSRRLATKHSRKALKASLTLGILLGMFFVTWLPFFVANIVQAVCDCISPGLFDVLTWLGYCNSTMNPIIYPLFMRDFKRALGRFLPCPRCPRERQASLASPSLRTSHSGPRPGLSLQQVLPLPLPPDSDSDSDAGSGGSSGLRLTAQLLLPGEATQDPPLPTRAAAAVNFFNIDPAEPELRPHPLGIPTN
Method: Ligand affinity for 5-HT6 receptors was subsequently tested with a radioligand binding assay, using the HEK293 cell line with human 5-HT6R, aiming to select compounds with the strongest affinity. Three compounds belonging to 2-naphthalenesulfonamide derivatives of 3,4-dihydroquinazolin-2-amines were obtained (Table 1).
The detailed procedure is presented in previous publications.[53] Assays were performed by incubating for 1 h at 37 °C (room temperature for 5-HT1A) in 200 μL volumes on 96-well plates. The reaction was terminated by rapid filtration using Unifilter plates, and radioactivity on the filters was measured with a PerkinElmer Microbeta plate reader. Radioligands used were:
Eight concentrations (10^–4 to 10^–11 M) were tested in triplicate for each compound. Inhibition constants (Ki) were calculated using the Cheng–Prusoff equation.[54] The results are expressed as the means of at least two independent experiments.

1321N1 astrocytoma cells = experiment: Antiproliferative activity (MTS), 1321N1; format: cell-based, human; settings: MTS assay
Method: as §1, §2
Supplementary materials - Biological research […]

[6] = target: T2, human serum albumin (HSA) (Homo sapiens, UniProt P02768); experiment: HSA binding by biochromatography (HSA column); format: in vitro ADME
T2 construct: purchased
T2 sequence (P02768 25-609): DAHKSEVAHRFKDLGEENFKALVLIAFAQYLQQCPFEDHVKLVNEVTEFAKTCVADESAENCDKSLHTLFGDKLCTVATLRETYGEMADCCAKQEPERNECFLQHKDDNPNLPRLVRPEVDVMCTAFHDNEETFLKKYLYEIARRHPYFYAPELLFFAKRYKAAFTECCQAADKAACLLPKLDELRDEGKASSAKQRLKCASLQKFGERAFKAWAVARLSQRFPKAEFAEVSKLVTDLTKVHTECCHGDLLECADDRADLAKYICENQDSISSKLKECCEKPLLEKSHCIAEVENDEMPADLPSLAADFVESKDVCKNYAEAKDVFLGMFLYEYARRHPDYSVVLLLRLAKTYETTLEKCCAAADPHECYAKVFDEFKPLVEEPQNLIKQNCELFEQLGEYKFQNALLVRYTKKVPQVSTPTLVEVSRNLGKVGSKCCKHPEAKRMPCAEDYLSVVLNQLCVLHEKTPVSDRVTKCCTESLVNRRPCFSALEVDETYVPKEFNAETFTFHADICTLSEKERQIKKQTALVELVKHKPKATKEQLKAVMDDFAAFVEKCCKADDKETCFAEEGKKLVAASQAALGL
Method: (§4) Lipophilicity and affinity for phospholipids for each investigated molecule were assessed. Additionally, selected compounds with the highest biological activities have been characterized by their affinity plasma proteins. All experiments were performed using protocols developed by Valko.[35] These methods facilitated the calculation of chromatographic hydrophobicity indices (CHI) and plasma protein binding percentages (%PPB) in a biochromatographic experiment, with results compared to the reference. A detailed description of the experiments is provided in the Supporting Information (SI), along with the raw data. […] Although high lipophilicity may limit the medical use of the analyzed compounds since they may tend to accumulate excessively in the human body, it is remarkable that several clinically used drugs also have high lipophilicity. […] (Table 5).
(§5) The detailed procedure is presented in previous publications.[53] High-performance liquid chromatography (HPLC) analyses were conducted using the Prominence-1 LC-2030C 3D system (Shimadzu) with a DAD detector, employing three different chromatographic columns with specific stationary phases and mobile phases. The analysis was performed at 30 °C with a flow rate of 1.5 mL/min for IAM and C18 columns, and 0.9 mL/min for the Chiralpak column. Calibration standards for the columns were sourced from various suppliers and dissolved in dimethyl sulfoxide. Detection occurred in the UV range (190–300 nm) with a 5 μL injection volume. Each compound was analyzed in triplicate. Retention times for the tested compounds and calibration standards are provided in the Supporting Information (Tables S1 and S2).

[7] = Affinity to phospholipids, CHI IAM (Valko protocol); format: physicochemical; settings: IAM column
Method: as §4, §5

MCF7 breast cancer cells = experiment: Antiproliferative activity (MTS), MCF7; format: cell-based, human; settings: MTS assay, 72 h
Method: as §1, §2

[8] = Lipophilicity, chromatographic hydrophobicity index on C18 (Valko protocol); format: physicochemical
Method: as §4, §5

[9] = test system: AsPC-1 pancreatic cancer cells; experiment: Antiproliferative activity (MTS), AsPC-1; format: cell-based, human; settings: MTS assay, 72 h
Method: as §1, with “The chosen group of ligands was further examined for their ability to inhibit proliferation across multiple cancer cell lines related to the CNS system (1321N1, U87MG, LN-229, and U-251). These” for “These”
as §3

[10] = test system: HSA and AGP in a ratio 24:1; settings: human
HSA and AGP (24:1) = experiment: in vitro; settings: human, plasma

CC(=O)Nc1ccccc1 [Acetanilidine]
CHI IAM of the calibration set [1]: 11.5

CC(=O)c1ccccc1 [Acetophenone]
CHI C18 at pH 2.6 of the calibration set [2]: 64.1 | CHI IAM of the calibration set [1]: 17.2

CN(C)C/C=C/C(=O)Nc1cc2c(Nc3ccc(F)c(Cl)c3)ncnc2cc1O[C@H]1CCOC1 [Afatinib, reference compound]
IC50 ([3]; Homo sapiens, LN-229): 9.8 µM | IC50 (U-251 glioblastoma cells; Homo sapiens, U-251): 27 µM | IC50 ([4]; Homo sapiens, Astrocyte): 7.5 µM

c1ccc2[nH]cnc2c1 [Benzimidazole]
CHI C18 at pH 2.6 of the calibration set [2]: 6.3

CCCC(=O)c1ccccc1 [Butyrophenone]
CHI C18 at pH 2.6 of the calibration set [2]: 87.3 | CHI IAM of the calibration set [1]: 32

COc1cc2c(c(OC)c1OC)-c1ccc(OC)c(=O)cc1[C@@H](NC(C)=O)CC2 [Colichicine]
CHI C18 at pH 2.6 of the calibration set [2]: 43.9

CCCCCCC(=O)c1ccccc1 [Heptanophenone]
CHI IAM of the calibration set [1]: 45.7

CCCCCC(=O)c1ccccc1 [Hexanophenone]
CHI IAM of the calibration set [1]: 41.8

c1ccc2[nH]ccc2c1 [Indole]
CHI C18 at pH 2.6 of the calibration set [2]: 72.1

CCCCCCCC(=O)c1ccccc1 [Octanophenone]
CHI IAM of the calibration set [1]: 49.4

CC1NC(NCCCCCCNS(=O)(=O)c2cccc3ccccc23)=Nc2cccc(F)c21 (centres unmarked) [PP 11, N-{6-[(5-Fluoro-4-methyl-3,4-dihydroquinazolin-2-yl)amino]hexyl}naphthalene-1-sulfonamide]
IC50 ([3]; Homo sapiens, LN-229): > 25 µM | IC50 (U-251 glioblastoma cells; Homo sapiens, U-251): 12.2 ± 0.3 µM | IC50 (U87MG glioblastoma cells; Homo sapiens, U-87 MG): 8.5 ± 0.7 µM | main metabolic pathway [5]: double hydroxylation and double bond reduction | metabolic stability, % of remaining [5]: 74.22% | Ki (5-HT6): 0.222 ± 0.056 µM | IC50 (1321N1 astrocytoma cells; Homo sapiens, 1321-N1): 5.7 ± 0.1 µM | %HSA ([6]; HSA column): 99.2% | logKHSA ([6]; HSA column): 1.75 and 1.8 | CHI IAM [7]: 60.1 | IC50 ([4]; Homo sapiens, Astrocyte): 4.5 µM | IC50 [4]: 4.4 ± 1.3 µM | IC50 (MCF7 breast cancer cells; Homo sapiens, MCF7): 9.1 ± 0.8 µM | CHI C18 pH 2.6 [8]: 103.4 | CHI C18 pH 7.4 [8]: 103.1 | CHI C18 pH 10.5 [8]: 93.1 | IC50 ([9]; Homo sapiens, ASPC1): 13.8 ± 0.3 µM

O=S(=O)(NCCNc1ncc2ccccc2n1)c1cccc2ccccc12 [PP 14, N-{2-[(Quinazolin-2-yl)amino]ethyl}naphthalene-1-sulfonamide]
IC50 ([3]; Homo sapiens, LN-229): > 25 µM | IC50 (U-251 glioblastoma cells; Homo sapiens, U-251): > 25 µM | IC50 (U87MG glioblastoma cells; Homo sapiens, U-87 MG): > 25 µM | Ki (5-HT6): 4.18 ± 1.04 µM | IC50 (1321N1 astrocytoma cells; Homo sapiens, 1321-N1): > 25 µM | %HSA ([6]; HSA column): 95.0% | logKHSA ([6]; HSA column): 1.2 | CHI IAM [7]: 37.2 | IC50 (MCF7 breast cancer cells; Homo sapiens, MCF7): > 25 µM | CHI C18 pH 2.6 [8]: 78.3 | CHI C18 pH 7.4 [8]: 86.3 | CHI C18 pH 10.5 [8]: 87.1 | IC50 ([9]; Homo sapiens, ASPC1): > 25 µM

CC(=O)Nc1ccc(O)cc1 [Paracetamol]
CHI IAM of the calibration set [1]: 2.9

CCC(=O)c1ccccc1 [Propiophenone]
CHI C18 at pH 2.6 of the calibration set [2]: 77.4 | CHI IAM of the calibration set [1]: 25.9

Cn1c(=O)c2[nH]cnc2n(C)c1=O [Theophylline]
CHI C18 at pH 2.6 of the calibration set [2]: 17.9

CCCCC(=O)c1ccccc1 [Valerophenone]
CHI C18 at pH 2.6 of the calibration set [2]: 96.4 | CHI IAM of the calibration set [1]: 37.3

CC(=O)CC(c1ccccc1)c1c(O)c2ccccc2oc1=O (centres unmarked) [Warfarin]
PPB kD [10]: 9.5 µM | fraction unbound (HSA and AGP (24:1)): 0.015

N-{2-[4-(1,2-Benzothiazol-3-yl)piperazin-1-yl]ethyl}-1,2-dihydroquinazolin-2-amine [PP 21]
IC50 [3]: 9.9 ± 0.7 µM | IC50 (U-251 glioblastoma cells): 13 ± 0.4 µM | Ki (5-HT6): 0.605 ± 0.151 µM | IC50 [4]: 4.7 ± 0.2 µM | IC50 (MCF7 breast cancer cells): > 25 µM | IC50 [9]: 7.4 ± 0.5 µM

N-{2-[4-(1-Benzothiophen-4-yl)piperazin-1-yl]ethyl}-1,2-dihydroquinazolin-2-amine [PP 22]
IC50 [3]: > 25 µM | IC50 (U-251 glioblastoma cells): 4.3 ± 0.6 µM | IC50 (U87MG glioblastoma cells): 13.8 ± 0.9 µM | Ki (5-HT6): 0.278 ± 0.07 µM | IC50 (1321N1 astrocytoma cells): 10.4 ± 0.6 µM | %HSA [6]: 98.4% | CHI IAM [7]: 56.4 | IC50 [4]: 8.1 ± 0.2 µM | IC50 (MCF7 breast cancer cells): 14.5 ± 0.2 µM | CHI C18 pH 2.6 [8]: 56.4 | CHI C18 pH 7.4 [8]: 115.8 | CHI C18 pH 10.5 [8]: 168.7 | IC50 [9]: 12.5 ± 0.4 µM
